These results are taken from BindingDB's records for doi:10.1021/jm050519b (Oxagen, 2005).

Each structure is given as a SMILES string.

This experiment is described as follows: Concentration required to inhibit PGD-2 induced change in the shape of human eosinophils expressing CRTH2.

Usually IC50 stands for the concentration that gives 50% inhibition. The low end stands for greater potency in that assay, the high end for weaker potency in that assay.

`Cc1c(CC(=O)O)c2cc(F)ccc2n1S(=O)(=O)c1ccc(S(C)(=O)=O)cc1` [[5-Fluoro-1-(4-methanesulfonyl-benzenesulfonyl)-2-methyl-1H-indol-3-yl]-acetic acid] came in with an IC50 of 74 nM.

As for `Cc1c(CC(=O)O)c2cc(F)ccc2n1S(=O)(=O)c1ccc(Cl)cc1` [[1-(4-Chloro-benzenesulfonyl)-5-fluoro-2-methyl-1H-indol-3-yl]-acetic acid], the IC50 came to 908 nM.
